ChEMBL document CHEMBL5390305, “Discovery of Ligands for TRIM58, a Novel Tissue-Selective E3 Ligase” (ACS Med Chem Lett, 2023)
In brackets after ≈: the same amount, converted by molar mass.

Experiments:
[1] = target: T1, E3 ubiquitin-protein ligase TRIM58 (Homo sapiens, UniProt Q8NG06); assay: Displacement of Ac-DKSDLKAELERKK-C(BODIPY-FL-M)-RLAQIREEKKRKEE-NH2 peptide probe from TRIM58 (279 to 466 residue) (unknown origin) preincubated for 30 mins followed by probe addition by fluorescence polarization method
T1 sequence (Q8NG06 whole entry): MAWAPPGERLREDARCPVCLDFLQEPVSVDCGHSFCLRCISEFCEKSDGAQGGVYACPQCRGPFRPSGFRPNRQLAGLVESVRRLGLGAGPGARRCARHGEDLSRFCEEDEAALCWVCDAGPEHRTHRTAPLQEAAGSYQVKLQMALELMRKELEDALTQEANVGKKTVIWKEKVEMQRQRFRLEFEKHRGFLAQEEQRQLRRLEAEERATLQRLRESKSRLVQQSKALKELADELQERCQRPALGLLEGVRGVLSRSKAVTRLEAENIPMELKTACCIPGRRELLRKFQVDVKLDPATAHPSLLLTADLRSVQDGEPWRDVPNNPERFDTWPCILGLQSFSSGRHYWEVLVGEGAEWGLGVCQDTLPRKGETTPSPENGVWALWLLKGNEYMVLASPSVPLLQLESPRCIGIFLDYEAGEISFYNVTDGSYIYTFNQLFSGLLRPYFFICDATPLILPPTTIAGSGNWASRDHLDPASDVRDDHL

[2] = Solubility of the compound at pH 6.8 by high-throughput equilibrium solubility assay; assay type: physicochemical; conditions: buffer
[3] = Apparent permeability across apical to basolateral side in low efflux MDCK cells; assay type: ADME, cell-based, Canis lupus familiaris; conditions: dog
[4] = Lipophilicity, log D of the compound in octanol/buffer system at pH 7.4 by shake-flask based LC/MSMS analysis; assay type: physicochemical
[5] = target: T1, E3 ubiquitin-protein ligase TRIM58; assay: Binding affinity against N-terminal 6His-tagged TRIM58 (251 to 466 residue) (unknown origin) expressed in Escherichia coli BL21 (DE3) by SPR assay

SMILES | EC50 [1] | solubility thermodynamic [2] | Papp A→B [3] | logD [4] | Kd [5]
c1ccc2cc(-c3nn[nH]n3)c(NCC3CCNCC3)cc2c1 | > 100 µM |  |  |  | 
CNc1nc(NCC2CCNCC2)c2cc(-c3ccccc3)ccc2n1 | 12 µM | 80 µM (≈ 27.8 µg/mL) | 16 nm/s |  | 
CNc1nc(NC)c2cc(-c3ccccc3)ccc2n1 | 75 µM | 100 µM (≈ 26.4 µg/mL) |  | 1.7 | 
CNCCCNc1nc(NCC2CCNCC2)c2cc(-c3ccccc3)ccc2n1 | > 100 µM | > 750 µM | 6 nm/s | 1.2 | 
c1ccc(-c2ccc3nc(NCC4CC4)nc(NCC4CCNCC4)c3c2)cc1 | 8.6 µM | 20 µM (≈ 7.75 µg/mL) | 35 nm/s | 1.1 | 
CN(C)CCCNc1nc(NCCc2ccccc2)c2cc(-c3ccccc3)ccc2n1 | 12.7 µM | 40 µM (≈ 17 µg/mL) | 240 nm/s | 3.3 | 
CNc1nc(NCC2CCNCC2)c2ccccc2n1 | > 100 µM | > 750 µM | 16 nm/s | -0.8 | 
CNc1nc(OCC2CCNCC2)c2cc(-c3ccccc3)ccc2n1 | 74 µM | > 750 µM | 290 nm/s | -0.5 | 

The next compounds have a lower EC50 [1] than those just listed; values first:

EC50 [1] | solubility thermodynamic [2] | Papp A→B [3] | logD [4] | Kd [5] | SMILES
7.4 µM | 60 µM (≈ 24.3 µg/mL) | 190 nm/s | 4 |  | CCCCCCNc1nc(NCCCN(C)C)nc2ccc(-c3ccccc3)cc12
6.6 µM | > 750 µM | 11 nm/s | 0.5 |  | CNc1nc(NCC2CCNCC2)c2cc(C3CCCCC3)ccc2n1
5.3 µM | > 1000 µM |  | < -1 | 24 µM | CN(C)CCCNc1nc(NCC2CCNCC2)c2cc(-c3ccccc3)ccc2n1
